Measured values: ChEMBL document CHEMBL4393669, “D2 Dopamine Receptor G Protein-Biased Partial Agonists Based on Cariprazine” (J Med Chem, 2019)
Active and inactive are the calls of the source. The rule behind the calls is not given here.

Tests used:
[1] = biological target: D(2) dopamine receptor (Homo sapiens) (UniProt P14416)
Mus musculus = species on record: Mus musculus; details: C57

D(2) dopamine receptor (Homo sapiens), sequence (P14416 whole entry): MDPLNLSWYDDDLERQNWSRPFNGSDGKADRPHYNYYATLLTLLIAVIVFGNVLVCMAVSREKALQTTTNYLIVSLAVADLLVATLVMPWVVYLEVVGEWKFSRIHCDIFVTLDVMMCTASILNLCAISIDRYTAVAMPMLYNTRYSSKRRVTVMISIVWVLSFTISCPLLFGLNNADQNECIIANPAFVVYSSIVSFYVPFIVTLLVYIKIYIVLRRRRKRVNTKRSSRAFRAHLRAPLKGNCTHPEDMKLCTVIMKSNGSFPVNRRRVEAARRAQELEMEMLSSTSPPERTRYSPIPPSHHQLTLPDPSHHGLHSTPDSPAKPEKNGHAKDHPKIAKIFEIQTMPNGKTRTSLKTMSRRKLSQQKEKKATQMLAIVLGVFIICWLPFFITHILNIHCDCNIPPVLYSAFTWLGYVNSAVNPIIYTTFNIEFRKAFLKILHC

pEC50 [1]	Structure (SMILES)	Occ (Mus musculus)
inactive	CN(C)C(=O)Nc1ccc(CCN2CCc3ccccc3C2)cc1	
inactive	CN(C)C(=O)NCCCCCN1CCc2ccccc2C1	
	CN(C)C(=O)N[C@H]1CC[C@H](CCN2CCc3cccc(Cl)c3C2)CC1	Dose-dependent effect
inactive	CN(C)C(=O)N[C@H]1CC[C@H](CN2CCc3ccccc3C2)CC1	
